Values of other authors, collected in publication PMC10011554, “BET inhibitor trotabresib in heavily pretreated patients with solid tumors and diffuse large B-cell lymphomas” (Nature Communications, 2023).
Read-outs that look alike come from different tables or passages of the source.

Experiments:
[1] = parameters: method as in PMID 32240793; conditions: cited from earlier work
[2] = parameters: method as in PMID 32240793; conditions: part A preliminary results; cited from earlier work
[3] = tested on: FOSL1 gene expression in U-87 glioblastoma cells; parameters: method as in Investigator's Brochure; conditions: U-87 cells, ref Investigator's Brochure; read-out: IC50, inhibition of FOSL1 gene expression; cited from earlier work
[4] = tested on: GLI1 gene expression in MIA-PaCa-2 pancreatic adenocarcinoma cells; parameters: method as in Investigator's Brochure; conditions: MIA-PaCa-2 cells, ref Investigator's Brochure; read-out: IC50, inhibition of GLI1 gene expression; cited from earlier work
TMD8 (ABC DLBCL) = tested on: TMD8 (ABC DLBCL); parameters: method as in Report CC-90010-Pharm-1018; conditions: TMD8, Experiment 1, ref Report CC-90010-Pharm-1018; read-out: absolute IC50, proliferation; cited from earlier work
SU-DHL-4 (GCB DLBCL) = tested on: SU-DHL-4 (GCB DLBCL); parameters: method as in Report CC-90010-Pharm-1018; conditions: read-out: absolute IC50, proliferation, cited from earlier work
OCI-LY-19 (GCB DLBCL) = tested on: OCI-LY-19 (GCB DLBCL); parameters: method as in Report CC-90010-Pharm-1018; conditions: OCI-LY-19, Experiment 1, ref Report CC-90010-Pharm-1018; read-out: absolute IC50, proliferation; cited from earlier work
FARAGE (GCB DLBCL) = tested on: FARAGE (GCB DLBCL); parameters: method as in Report CC-90010-Pharm-1018; conditions: read-out: absolute IC50, proliferation, cited from earlier work
OCI-LY-10 (DOX-R) = tested on: OCI-LY-10 (DOX-R); parameters: method as in Report CC-90010-Pharm-1018; conditions: Table 2, ref Report CC-90010-Pharm-1018, read-out: absolute IC50, proliferation; cited from earlier work
SU-DHL-4 (DOX-R) = tested on: SU-DHL-4 (DOX-R); parameters: method as in Report CC-90010-Pharm-1018; conditions: Table 2, ref Report CC-90010-Pharm-1018, read-out: absolute IC50, proliferation; cited from earlier work
three TNBC models = tested on: three TNBC models; parameters: method as in Investigator's Brochure; conditions: ref Investigator's Brochure, read-out: overall mean IC50, colony formation; cited from earlier work
[5] = tested on: MYC expression in COH70 TNBC PDX tumor; parameters: method as in Investigator's Brochure; conditions: ref Investigator's Brochure, cited from earlier work
[6] = parameters: method as in Unpublished data from Celgene Corporation; conditions: COH70 study, ref Unpublished data from Celgene Corporation; cited from earlier work
[7] = parameters: method as in Investigator's Brochure; conditions: dogs, ref Investigator's Brochure, cited from earlier work
CYP2C8 = tested on: CYP2C8; parameters: method as in Investigator's Brochure; conditions: CYP2C8, ref Investigator's Brochure; read-out: IC50, direct inhibition; cited from earlier work
P-gp [8] = tested on: P-gp; parameters: method as in Investigator's Brochure; conditions: ref Investigator's Brochure, read-out: IC50, transporter inhibition; cited from earlier work
OCT2 = tested on: OCT2; parameters: method as in Investigator's Brochure; conditions: OCT2, ref Investigator's Brochure; read-out: IC50, transporter inhibition; cited from earlier work
OATP1B3 = tested on: OATP1B3; parameters: method as in Investigator's Brochure; conditions: OATP1B3, 30 µM, ref Investigator's Brochure; cited from earlier work
P-gp [9] = tested on: P-gp; parameters: method as in Investigator's Brochure; conditions: ref Investigator's Brochure; cited from earlier work
[10] = tested on: bacterial reverse mutation; parameters: method as in Investigator's Brochure; conditions: non-GLP, ref Investigator's Brochure; cited from earlier work

Cn1cc(-c2cc(S(C)(=O)=O)ccc2OCC2CC2)c2ccccc2c1=O [trotabresib]
alternative RP2D ([1]; 3 days on/11 days off): 30 mg/day
recommended phase II dose (RP2D) ([1]; 4 days on/24 days off): 45 mg/day
oral bioavailability [2]: high oral bioavailability
t1/2 [2]: ~ 60 h
IC50 [3]: 30 nM
IC50 [4]: 240 nM
IC50 (TMD8 (ABC DLBCL)): 190 nM
IC50 (SU-DHL-4 (GCB DLBCL); SU-DHL-4, Experiment 1, ref Report CC-90010-Pharm-1018): 160 nM
IC50 (SU-DHL-4 (GCB DLBCL); SU-DHL-4, Table 2, ref Report CC-90010-Pharm-1018): 304 nM
IC50 (OCI-LY-19 (GCB DLBCL)): 220 nM
IC50 (FARAGE (GCB DLBCL); FARAGE, Experiment 1, ref Report CC-90010-Pharm-1018): 710 nM
IC50 (FARAGE (GCB DLBCL); Farage, Experiment 2, ref Report CC-90010-Pharm-1018): 3350 nM
IC50 (OCI-LY-10 (DOX-R)): 1100 nM
IC50 (SU-DHL-4 (DOX-R)): 899 nM
IC50 (three TNBC models): 110 ± 40 nM
maximal suppression of MYC expression ([5]; COH70, 2 mg/kg, at 2 hours): 51.3%
maximal suppression of MYC expression ([5]; COH70, 10 mg/kg, at 4 hours): 63.4%
daily dose up to which well tolerated [6]: 25 mg/kg
mean oral bioavailability [7]: 76%
accumulation after repeat dosing ([7]; toxicokinetics): up to 3 fold
IC50 (CYP2C8): ≥ 13900 nM
IC50 (P-gp [8]): 2000 nM
IC50 (OCT2): 8240 nM
inhibition of mediated transport (OATP1B3): 58.3%
transporter substrate status (P-gp [9]): substrate of P-gp
mutagenicity (Ames) [10]: non-mutagenic
